In the first assay the target is human FPR2 receptor (Homo sapiens (Human), UniProt P25090). The assay is described as follows: FLIPR Ca+2 response in HEK-Gα16 cells stably expressing the human FPR2 receptor. Type of assay: cell-based. Further details: FPR2 (% eff): unit not given here. The conditions noted are these: Table 4. On the procedure:
FLIPR: HEK-Gα16 cells stably expressing the human FPR2 receptor was utilized. Cells were plated into 384-well poly-D-lysine coated plates at a density of 18,000 cells per well one day prior to use. The growth media was DMEM medium supplemented with 10% fetal bovine serum (FBS), 1% antibiotic-antimycotic, 50 μg/ml hygromycin, and 400 μg/ml geneticin. On the day of the experiment, the cells were washed twice with Hank's Balanced Salt Solution supplemented with 20 mM HEPES (HBSS/hepes buffer). The cells were then dye loaded with 2 μM Fluo-4 diluted in the HBSS/Hepes buffer and incubated at 37° C. for 40 minutes. Extracellular dye was removed by washing the cell plates four times prior to placing the plates in the FLIPR (Fluorometric Imaging Plate Reader, Molecular Devices). Ligands were diluted in HBSS/Hepes buffer and prepared in 384-well microplates. Data for Ca^+2 responses were obtained in relative fluorescence units.
human FPR2 receptor, sequence (P25090 whole entry): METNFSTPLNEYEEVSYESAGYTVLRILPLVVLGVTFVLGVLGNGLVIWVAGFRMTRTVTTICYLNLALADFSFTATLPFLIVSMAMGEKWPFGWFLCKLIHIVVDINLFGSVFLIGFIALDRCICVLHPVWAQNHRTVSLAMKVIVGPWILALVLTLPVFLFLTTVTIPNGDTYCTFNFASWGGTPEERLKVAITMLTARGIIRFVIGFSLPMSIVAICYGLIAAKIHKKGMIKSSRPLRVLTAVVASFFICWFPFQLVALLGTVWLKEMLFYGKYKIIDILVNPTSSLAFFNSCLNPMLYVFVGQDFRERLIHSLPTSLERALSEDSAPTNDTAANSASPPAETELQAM
The term EC50 denotes the midpoint of the concentration-response curve. `CSc1ccc(NC(=O)C2C(C(=O)O)C3CCC2C32CC2)cc1` (centres unmarked) [Compound 29, 3-{[4-(methylsulfanyl)phenyl]carbamoyl}spiro[bicyclo[2.2.1]heptane-7,1′-cyclopropane]-2-carboxylic acid] returned an EC50 of 7 nM.

The same assay, now with this note: Table 4; value in brackets, given mostly as fraction.
Turning to `CSc1ccc(NC(=O)Nc2ccc3c(c2)C(=O)N(CCCN)C(c2ccc(C#N)cc2)C3)cc1` (centres unmarked) [Compound 16, 1-[2-(3-aminopropyl)-3-(4-cyanophenyl)-1-oxo-1,2,3,4-tetrahydroisoquinolin-7-yl]-3-[4-(methylsulfanyl)phenyl]urea], the “FPR2 (% eff)” value is on record as 0.70.

Regarding `CSc1ccc(NC(=O)Nc2ccc3c(c2)C(=O)N(CCc2c[nH]cn2)C(c2ccc(C#N)cc2)C3)cc1` (centres unmarked) [Compound 17, 1-{3-(4-cyanophenyl)-2-[2-(1H-imidazol-4-yl)ethyl]-1-oxo-1,2,3,4-tetrahydroisoquinolin-7-yl}-3-[4-(methylsulfanyl)phenyl]urea], the “FPR2 (% eff)” value is 0.92.

For the compound `CS(=O)(=O)c1ccc(NC(=O)Nc2ccc3c(c2)C(=O)N(CCCN)C(c2ccc(C#N)cc2)C3)cc1` (centres unmarked) [Compound 18, 1-[2-(3-aminopropyl)-3-(4-cyanophenyl)-1-oxo-1,2,3,4-tetrahydroisoquinolin-7-yl]-3-[4-(methylsulfonyl)phenyl]urea], the “FPR2 (% eff)” value amounted to 0.86.

On to `CS(=O)(=O)c1ccc(NC(=O)Nc2ccc3c(c2)C(=O)N(CCc2c[nH]cn2)C(c2ccc(C#N)cc2)C3)cc1` (centres unmarked) [Compound 19, 1-{3-(4-cyanophenyl)-2-[2-(1H-imidazol-4-yl)ethyl]-1-oxo-1,2,3,4-tetrahydroisoquinolin-7-yl}-3-[4-(methylsulfonyl)phenyl]urea], for which the “FPR2 (% eff)” value worked out at 1.00.

As for `CSc1ccc(NC(=O)Nc2ccc3c(c2)C(=O)N(CCc2c[nH]cn2)C(c2ccco2)C3)cc1` (centres unmarked) [Compound 23, 1-{3-(furan-2-yl)-2-[2-(1H-imidazol-4-yl)ethyl]-1-oxo-1,2,3,4-tetrahydroisoquinolin-7-yl}-3-[4-(methylsulfanyl)phenyl]urea], the “FPR2 (% eff)” value is recorded as 0.83.

With `C[S+]([O-])c1ccc(NC(=O)Nc2ccc3c(c2)C(=O)N(CCc2c[nH]cn2)C(c2ccc(F)cn2)C3)cc1` (centres unmarked) [Compound 24, 1-{3-(5-fluoropyridin-2-yl)-2-[2-(1H-imidazol-4-yl)ethyl]-1-oxo-1,2,3,4-tetrahydroisoquinolin-7-yl}-3-[4-(methylsulfinyl)phenyl]urea], the “FPR2 (% eff)” value was 0.93.

For `CS(=O)(=O)c1ccc(NC(=O)Nc2ccc3c(c2)C(=O)N(CCc2c[nH]cn2)C(c2ccc(F)cn2)C3)cc1` (centres unmarked) [Compound 25, 1-{3-(5-fluoropyridin-2-yl)-2-[2-(1H-imidazol-4-yl)ethyl]-1-oxo-1,2,3,4-tetrahydroisoquinolin-7-yl}-3-[4-(methylsulfonyl)phenyl]urea], the “FPR2 (% eff)” value was determined as 1.0.

Turning to `CSc1ccc(NC(=O)Nc2ccc3c(c2)C(=O)N(CCc2c[nH]cn2)C(c2ccc(Cl)o2)C3)cc1` (centres unmarked) [Compound 27, 1-{3-(5-chlorofuran-2-yl)-2-[2-(1H-imidazol-4-yl)ethyl]-1-oxo-1,2,3,4-tetrahydroisoquinolin-7-yl}-3-[4-(methylsulfanyl)phenyl]urea], the “FPR2 (% eff)” value is 0.81.

Regarding `CSc1ccc(NC(=O)Nc2ccc3c(c2)C(=O)N(CCc2c[nH]cn2)C(c2ccc(Cl)nc2)C3)cc1` (centres unmarked) [Compound 28, 1-{3-(6-chloropyridin-3-yl)-2-[2-(1H-imidazol-4-yl)ethyl]-1-oxo-1,2,3,4-tetrahydroisoquinolin-7-yl}-3-[4-(methylsulfanyl)phenyl]urea], the “FPR2 (% eff)” value worked out at 0.89.

`CSc1ccc(NC(=O)C2C(C(=O)O)C3CCC2C32CC2)cc1` (centres unmarked) [Compound 29, 3-{[4-(methylsulfanyl)phenyl]carbamoyl}spiro[bicyclo[2.2.1]heptane-7,1′-cyclopropane]-2-carboxylic acid]: the “FPR2 (% eff)” value is reported as 0.96.

Take `NC(=O)C1C(C(=O)Nc2ccc(Br)cc2)C2CCC1C21CC1` (centres unmarked) [Compound 30, N-(4-bromophenyl)spiro[bicyclo[2.2.1]heptane-7,1′-cyclopropane]-2,3-dicarboxamide]: the “FPR2 (% eff)” value is given as 0.96.

On to `CSc1ccc(NC(=O)Nc2ccc3c(c2)C(=O)N(CCc2c[nH]cn2)C(c2ccc(Cl)cn2)C3)cc1` (centres unmarked) [Compound 32, 1-{3-(5-chloropyridin-2-yl)-2-[2-(1H-imidazol-4-yl)ethyl]-1-oxo-1,2,3,4-tetrahydroisoquinolin-7-yl}-3-[4-(methylsulfanyl)phenyl]urea], for which the “FPR2 (% eff)” value was 0.91.

As for `CS(=O)(=O)c1ccc(NC(=O)Nc2ccc3c(c2)C(=O)N(CCc2c[nH]cn2)C(c2ccc(Cl)cn2)C3)cc1` (centres unmarked) [Compound 33, 1-{3-(5-chloropyridin-2-yl)-2-[2-(1H-imidazol-4-yl)ethyl]-1-oxo-1,2,3,4-tetrahydroisoquinolin-7-yl}-3-[4-(methylsulfonyl)phenyl]urea], the “FPR2 (% eff)” value came out at 0.99.

On to `CSc1ccc(NC(=O)Nc2ccc3c(c2)C(=O)N(CCCN)[C@@H](c2ccc(C#N)cc2)C3)cc1` [Compound 36, (+)1-[(3R)-2-(3-aminopropyl)-3-(4-cyanophenyl)-1-oxo-1,2,3,4-tetrahydroisoquinolin-7-yl]-3-[4-(methylsulfanyl)phenyl]urea], for which the “FPR2 (% eff)” value was found to be 0.97.

In the case of `CSc1ccc(NC(=O)C2C(C(N)=O)C3CCC2C3(C)C)cc1` (centres unmarked) [Compound 37, 7,7-dimethyl-N-[4-(methylsulfanyl)phenyl]bicyclo [2.2.1]heptane-2,3-dicarboxamide], the “FPR2 (% eff)” value stood at 0.85.

As for `NC(=O)C1C(C(=O)Nc2ccc(I)cc2)C2CCC1C21CC1` (centres unmarked) [Compound 38, N-(4-iodophenyl)spiro[bicyclo[2.2.1]heptane-7,1′-cyclopropane]-2,3-dicarboxamide], the “FPR2 (% eff)” value was 0.95.

With `NC(=O)C1C(C(=O)Nc2ccc(I)cc2)C2C=CC1C21CC1` (centres unmarked) [Compound 39, N-(4-iodophenyl)spiro[bicyclo[2.2.1]heptane-7,1′-cyclopropane]-5-ene-2,3-dicarboxamide], the “FPR2 (% eff)” value is 0.90.

For the compound `C[S+]([O-])c1ccc(NC(=O)Nc2ccc3c(c2)C(=O)N(CCCNC(=O)OC(C)(C)C)[C@@H](c2ccc(C#N)cc2)C3)cc1` (stereo partly drawn) [Compound 40, (+) tert-butyl {3-[(3R)-3-(4-cyanophenyl)-7-({[4-(methylsulfinyl)phenyl]carbamoyl}amino)-1-oxo-3,4-dihydroisoquinolin-2(1H)-yl]propyl}carbamate], the “FPR2 (% eff)” value is recorded as 0.91.

For the compound `CSc1ccc(NC(=O)Nc2ccc3c(c2)C(=O)N(CCCN)C(C)C3)cc1` (centres unmarked) [Compound 42, 1-[2-(3-aminopropyl)-3-methyl-1-oxo-1,2,3,4-tetrahydroisoquinolin-7-yl]-3-[4-(methylsulfanyl)phenyl]urea], the “FPR2 (% eff)” value came out at 1.00.

For `N#Cc1ccc(C2Cc3ccc(NC(=O)Nc4ccc(I)cc4)cc3C(=O)N2CCCN)cc1` (centres unmarked) [Compound 43, 1-[2-(3-aminopropyl)-3-(4-cyanophenyl)-1-oxo-1,2,3,4-tetrahydroisoquinolin-7-yl]-3-(4-iodophenyl)urea], the “FPR2 (% eff)” value is on record as 0.94.

In the case of `CNC(=O)C1C(C(=O)Nc2ccc(Br)cc2)C2CCC1C21CC1` (centres unmarked) [Compound 46, N-(4-bromophenyl)-N′-methylspiro[bicyclo[2.2.1]heptane-7,1′-cyclopropane]-2,3-dicarboxamide], the “FPR2 (% eff)” value came out at 1.0.

As for `CCNC(=O)C1C(C(=O)Nc2ccc(Br)cc2)C2CCC1C21CC1` (centres unmarked) [Compound 47, N-(4-bromophenyl)-N′-ethylspiro[bicyclo[2.2.1]heptane-7,1′-cyclopropane]-2,3-dicarboxamide], the “FPR2 (% eff)” value is recorded as 1.0.

The record behind these values is patent US10434112B2, “Use of agonists of formyl peptide receptor 2 for treating dermatological diseases” (Allergan, Inc., priority 2013, dated 2019).
